Test system: FeCl3-induced occlusive thrombus in rat carotid artery
Test: Rat model of FeCl3-induced platelet-dependent arterial thrombosis
Assay type: in vivo
Settings: FeCl3 model of arterial thrombosis in rats
Text: Rat Model of FeCl3-induced Platelet-dependent Arterial Thrombosis
Kurz, K. D., Main, B. W., and Sandusky, G. E., Thromb. […] In this model a platelet-rich, occlusive thrombus is formed in a segment of the rat carotid artery treated locally with a fresh solution of FeCl3 absorbed to a piece of filter paper. The FeCl3 is thought to diffuse into the treated segment of artery and cause de-endothelialization of the affected vessel surface. […] The effect of a test compound on the incidence of occlusive thrombus formation following the application of the FeCl3 is monitored by ultrasonic flowtometry and is used as the primary end point. The use of flowtometry to measure carotid artery blood flow, is a modification of the original procedure in which thermal detection of clot formation was employed. Kurz, K. D., Main, B. W., and Sandusky, G. E., Thromb.
Male Harlan Sprague Dawley rats (420-450 g) were acclimated at least 72 hours prior to use and fasted for 12 hours prior to surgery with free access to water. The animals were prepared, anesthetized with Nembutal followed by the insertion of catheters for blood pressure monitoring, drug and anesthesia delivery. The left carotid artery was isolated by making a midline cervical incision followed by blunt dissection and spreading techniques to separate a 2 cm segment of the vessel from the carotid sheath. A silk suture is inserted under the proximal and distal ends of the isolated vessel to provide clearance for the placement of a ultrasonic flow probe (Transonic) around the proximal end of the vessel. The probe is then secured with a stationary arm.
The test compound was administered as a single intravenous bolus at the doses outlined in Table 4 after placement of the flow probe and 5 minutes prior to the thrombogenic stimulus. At t=0, a 3 mm diameter piece of filter paper (Whatman #3) soaked with 10 microliters of a 35% solution of fresh FeCl3 (made up in water) was applied the segment of isolated carotid artery distal to the flow probe. Blood pressure, blood flow, heart rate, and respiration were monitored for 60 minutes.
The incidence of occlusion (defined as the attainment of zero blood flow) was recorded as the primary end point.
This allows a direct comparison of the antithrombotic efficacy of [3-[(benzylsulfonyl)amino]-2-oxo-1,2-dihydropyridyl]acetyl-L-argininal, with other antithrombotic agents which have also been evaluated in this model as described above. Table 5 lists the ED50 values for several well known anticoagulant agents in this model compared to [3-[(benzylsulfonyl)amino]-2-oxo-1,2-dihydropyridyl]acetyl-L-argininal.

Which “ED50 for thrombus prevention (dose that prevents complete thrombotic occlusion in 50% of animals)” value does the source give for Hirulog ™ [reference compound] here?
The value was 3.0 mg/kg.

Source: patent US6342504B1, “Aromatic heterocyclic derivatives as enzyme inhibitors” (priority 1994, dated 2002)
